{"source": "ChEMBL document CHEMBL1127666", "about": "“Phosphonate analogs of carbocyclic nucleotides” (J Med Chem, 1994)", "tested_on": "HEp-2", "test": "Cytotoxicity to human epidermoid carcinoma cells (HEP-2)", "assay_type": "functional, cell-based", "data": [{"smiles": "Nc1nc(O)c2ncn([C@@H]3C[C@H](CO)[C@@H](O)C3)c2n1", "values": [{"measurement": "IC50", "result": 95, "unit": "µM"}]}, {"smiles": "Nc1nc(O)c2ncn(C3CC(O)C(OCP(=O)(O)O)C3)c2n1", "note": "(configuration not stated)", "values": [{"measurement": "IC50", "result": 2.4, "unit": "µM"}]}]}
